Results: US7138541B2, “Surface coating agents” (SurModics, Inc., priority 1999, dated 2006)

System: coagulation cascade (intrinsic and common pathways of coagulation)
Experiment: Partial thromboplastin time (PTT) test of coating agents
Format: biochemical
Conditions: for Extension of control PTT (in words): versus the respective solvent control, both concentrations tested
Protocol: A useful test in determining the hemocompatibility of a reagent is the partial thromboplastin time (PTT) test. The PTT is a test of the intrinsic (factors VIII, IX, XI, and XII) and common (fibrinogen, prothrombin, factors V and X) pathways of coagulation. A mixture of plasma and phospholipid platelet substitute (rabbit brain cephalin) is recalcified and the time required for the appearance of fibrin strands measured.
The PTT was tested to determine whether Compound I or Compound II have the ability to extend the control PTT. A test tube of rabbit brain cephalin (Sigma #RBC) in 0.85% NaCl and a test tube of 0.02 M CaCl2 was brought to 37° C. in a water bath. Dade Ci-trol coagulation control lyophilized plasma (Dade International, Inc., product no. 34224-10) was reconstituted in sterile deionized water. In 10×75 mm glass test tubes, 100 μl reconstituted plasma and 100 μl RBC were mixed and incubated at 37° C. in a water bath for 5 minutes. Next, 50 μl of sample (deionized water, a photocrosslinkable polyvinylpyrrolidone (available from SurModics, Inc., product no. PVO5), or Compound I or II) was added and mixed. While simultaneously starting a stop watch, 100 μl of 0.02 M CaCl2 was added to initiate the clotting cascade. After 40 seconds had passed, the test tubes were shaken lightly, observed for fibrin formation, and the number of seconds was recorded.
All samples were tested in duplicate. The appropriate control PTT, depending upon what solvent in which the reagent was dissolved, was subtracted from the average PTT for the reagent to give the time the control PTT was extended.

| SMILES | Extension of 50% IPA control PTT (higher of the two final concentrations tested, 50% IPA control) [h] | Extension of control PTT (in words) |
| --- | --- | --- |
| O=C(c1ccccc1)c1ccc(COc2cc(S(=O)(=O)[O-])c(OCc3ccc(C(=O)c4ccccc4)cc3)cc2S(=O)(=O)[O-])cc1.[K+].[K+] [Compound II, 2,5-bis(4-benzoylphenylmethyleneoxy) benzene-1,4-disulfonic acid dipotassium salt] | 1 | considerably extend |
| O=C(c1ccccc1)c1ccc(COc2cc(S(=O)(=O)[O-])cc(S(=O)(=O)[O-])c2OCc2ccc(C(=O)c3ccccc3)cc2)cc1.[K+].[K+] [Compound I, 4,5-bis(4-benzoylphenylmethyleneoxy) benzene-1,3-disulfonic acid disodium salt] |  | considerably extend |
